Measured values published in ChEMBL document CHEMBL4334427 (Medchemcomm, 2019).

Experiments:
[1] = biological target: T1, 4-hydroxy-tetrahydrodipicolinate synthase (Escherichia coli K-12) (UniProt P0A6L2); test: Competitive inhibition of Escherichia coli dihydrodipicolinate synthase using ASA as substrate
T1 sequence (whole entry): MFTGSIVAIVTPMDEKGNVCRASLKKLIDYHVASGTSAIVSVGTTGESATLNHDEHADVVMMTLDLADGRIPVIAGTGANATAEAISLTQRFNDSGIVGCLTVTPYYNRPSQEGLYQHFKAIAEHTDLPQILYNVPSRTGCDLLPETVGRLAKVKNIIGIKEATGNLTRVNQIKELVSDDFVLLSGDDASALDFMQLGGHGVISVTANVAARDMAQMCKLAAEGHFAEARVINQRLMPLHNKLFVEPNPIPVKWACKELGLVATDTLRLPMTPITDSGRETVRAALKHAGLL

[2] = biological target: T2, 4-hydroxy-tetrahydrodipicolinate synthase (Escherichia coli K-12, UniProt P0A6L2); test: (§1) Inhibition of Escherichia coli dihydrodipicolinate synthase
T2 sequence (P0A6L2 whole entry): T1 sequence (whole entry)

[3] = biological target: T2, 4-hydroxy-tetrahydrodipicolinate synthase; test: Reversible inhibition of Escherichia coli dihydrodipicolinate synthase using pyruvate as substrate
[4] = biological target: T2, 4-hydroxy-tetrahydrodipicolinate synthase; test: Reversible inhibition of Escherichia coli dihydrodipicolinate synthase using ASA as substrate
[5] = biological target: T2, 4-hydroxy-tetrahydrodipicolinate synthase; test: Inhibition of Escherichia coli dihydrodipicolinate synthase assessed as inhibitory dissociation constant using ASA as substrate
[6] = Inhibition of Campylobacter jejuni dihydrodipicolinate synthase
[7] = Reversible inhibition of Campylobacter jejuni dihydrodipicolinate synthase
[8] = biological target: T1, 4-hydroxy-tetrahydrodipicolinate synthase (Escherichia coli K-12); test: Uncompetitive inhibition of Escherichia coli dihydrodipicolinate synthase using DL-ASA as substrate
[9] = biological target: T1, 4-hydroxy-tetrahydrodipicolinate synthase (Escherichia coli K-12); test: Competitive inhibition of Escherichia coli dihydrodipicolinate synthase using pyruvate as substrate
[10] = biological target: T1, 4-hydroxy-tetrahydrodipicolinate synthase (Escherichia coli K-12); test: as §1
[11] = biological target: T1, 4-hydroxy-tetrahydrodipicolinate synthase (Escherichia coli K-12); test: Competitive inhibition of Escherichia coli dihydrodipicolinate synthase using DL-ASA as substrate
[12] = biological target: 4-hydroxy-tetrahydrodipicolinate synthase (Mycobacterium tuberculosis, UniProt P9WP25); test: Reversible inhibition of recombinant N-terminal His-6 tagged Mycobacterium tuberculosis dihydrodipicolinate synthase using (S)-ASA as substrate preincubated for 5 mins followed by substrate addition measured over 10 mins by spectrophotometric analysis
4-hydroxy-tetrahydrodipicolinate synthase (Mycobacterium tuberculosis, UniProt P9WP25), sequence (P9WP25 whole entry): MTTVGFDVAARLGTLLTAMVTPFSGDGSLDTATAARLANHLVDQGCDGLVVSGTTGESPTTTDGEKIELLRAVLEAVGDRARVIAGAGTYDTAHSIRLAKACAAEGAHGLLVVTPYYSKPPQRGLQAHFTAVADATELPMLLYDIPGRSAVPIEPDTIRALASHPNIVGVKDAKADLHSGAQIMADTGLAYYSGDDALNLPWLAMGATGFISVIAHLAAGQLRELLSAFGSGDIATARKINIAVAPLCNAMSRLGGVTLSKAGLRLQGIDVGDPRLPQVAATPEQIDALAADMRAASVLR

[13] = Reversible competitive inhibition of Bacillus subtilis PCI-219 dihydrodipicolinate synthase using DL-ASA as substrate after 10 mins by double reciprocal plot analysis
[14] = Reversible competitive inhibition of Bacillus subtilis PCI-219 dihydrodipicolinate synthase using pyruvate as substrate after 10 mins by double reciprocal plot analysis
[15] = biological target: T1, 4-hydroxy-tetrahydrodipicolinate synthase (Escherichia coli K-12); test: Inhibition of Escherichia coli dihydrodipicolinate synthase at 4.6 mM relative to control
[16] = biological target: T1, 4-hydroxy-tetrahydrodipicolinate synthase (Escherichia coli K-12); test: Uncompetitive inhibition of Escherichia coli dihydrodipicolinate synthase using pyruvate as substrate
[17] = biological target: T1, 4-hydroxy-tetrahydrodipicolinate synthase (Escherichia coli K-12); test: Inhibition of Escherichia coli dihydrodipicolinate synthase at 1 mM relative to control
[18] = biological target: T2, 4-hydroxy-tetrahydrodipicolinate synthase; test: Reversible competitive inhibition of Escherichia coli dihydrodipicolinate synthase
[19] = biological target: T1, 4-hydroxy-tetrahydrodipicolinate synthase (Escherichia coli K-12); test: Inhibition of Escherichia coli dihydrodipicolinate synthase at 1.2 mM relative to control
[20] = biological target: 4-hydroxy-tetrahydrodipicolinate synthase (Mycobacterium tuberculosis) (UniProt P9WP25); test: Inhibition of recombinant N-terminal His-6 tagged Mycobacterium tuberculosis dihydrodipicolinate synthase using (S)-ASA as substrate preincubated for 5 mins followed by substrate addition measured over 10 mins by spectrophotometric analysis relative to control
4-hydroxy-tetrahydrodipicolinate synthase (Mycobacterium tuberculosis), sequence (P9WP25 whole entry): as above

O=CCCC(=O)O
Kis [1]: 44 µM

O=C(O)c1cccc(C(=O)O)c1 [ISOPHTHALIC ACID]
Ki [2]: 5400 to 5600 µM

c1cc(-c2nnn[nH]2)nc(-c2nnn[nH]2)c1
IC50 [2]: 250 µM

N[C@H]1CCOC1=O [HOMOSERINE LACTONE]
Ki [3]: 8000 to 15000 µM | Ki [4]: 12000 to 22000 µM

N[C@@H](CCC(=O)O)C(=O)O [GLUTAMIC ACID]
Ki [5]: 9000 to 24000 µM

NCCCC[C@@](N)(CC[C@](N)(CCCCN)C(=O)O)C(=O)O
IC50 ([6]; read-out: IC50): 0.3 µM | Ki [7]: 0.14 µM

O=NN1CCCCC1C(=O)O (racemic)
IC50 [2]: 3500 µM

O=C(O)C(=O)CBr [BROMOPYRUVATE]
Ki [3]: 160 µM

O=NN1CCC[C@H]1C(=O)O
IC50 [2]: 7500 µM

CCCC(=O)C(=O)O
Kii [8]: 1.6 mM | Kis [9]: 0.7 mM

CCC(=O)C(=O)O
Kis [8]: 1.3 mM | Kis [9]: 0.83 mM

O=C(O)C1=CCCC(C(=O)O)C1 (stereo unspecified)
IC50 [2]: 15000 µM

NC1CCCC1=O (stereo unspecified)
Ki [5]: 12000 to 24000 µM

CC(=O)C(=O)O
Kic [10]: 54 µM | Kiuc [10]: 12 µM

N[C@@H](CC(=O)O)C(=O)O [ASPARTIC ACID]
Ki [4]: 90 to 140 µM | Ki [5]: 21000 to 39000 µM

N#Cc1cccc(C#N)n1
IC50 [2]: 300 µM

COC(=N)c1cccc(C(=N)OC)n1
IC50 [2]: 200 µM

O=C(O)C(=O)CF
Kis [11]: 2 mM | Kis [9]: 0.22 mM

COC(=O)c1cccc(C(=O)OC)n1
IC50 [2]: 700 µM

O=CC(=O)O
Kii [8]: 0.028 mM | Kis [9]: 0.016 mM

O=C(O)CCCCC(=O)C(=O)O
Ki [12]: 33 µM | Ki [13]: 220 µM | Ki [14]: 160 µM

O=C(O)c1cccc(C(=O)O)[n+]1[O-]
IC50 [2]: 200 µM

NCCSC[C@H](N)C(=O)O
Kis [11]: 2.4 mM | Kii [8]: 4.7 mM | inhibition [15]: 50% | Kii [16]: 1.9 mM

NCCCC[C@H](N)C(=O)O [LYSINE]
Kis [11]: 0.2 mM | IC50 ([6]; read-out: IC50(app)): 65 µM | IC50 [2]: 180 µM | inhibition [17]: 50%

N[C@@H](CC=O)C(=O)O
Kic [10]: 31 µM | Kiuc [10]: 26 µM

O=C(O)c1cccc(C(=O)O)n1 [DIPICOLINIC ACID]
IC50 [18]: 400 µM | Ki [2]: 11000 µM | inhibition [19]: 50%

O=C(O)CCCCC(O)C(=O)O (stereo unspecified)
inhibition [20]: 74%
